Values after ≈ are worked out from the molar mass of the structure shown.
Key:
Mycolicibacterium phlei = test: Antimycobacterial activity against Mycobacterium phlei CMCC 93201 after 72 hrs by serial double dilution method; format: functional; details: CMCC 93201, 72 h
[1] = system: Mycolicibacterium smegmatis; test: Antimycobacterial activity against Mycobacterium smegmatis CMCC 93202 after 72 hrs by serial double dilution method; format: functional; details: CMCC 93202, 72 h
[2] = Cytotoxicity against african green monkey Vero cells after 72 hrs by MTT assay; format: cell-based; details: chlorocebus sabaeus
[3] = system: Mycobacterium tuberculosis; test: Antimycobacterial activity against Mycobacterium tuberculosis 09710 after 72 hrs by serial double dilution method; format: functional; details: Mycobacterium tuberculosis, 09710, 72 h
[4] = Lipophilicity, log P of the compound; format: physicochemical; details: octanol/water
[5] = system: Mycobacterium tuberculosis; test: Antimycobacterial activity against Mycobacterium tuberculosis H37Rv ATCC 27294 after 72 hrs by serial double dilution method; format: functional; details: H37Rv ATCC 27294, 72 h

Structure (SMILES)	MIC (Mycolicibacterium phlei)	MIC [1]	CC50 at 72 h [2]	MIC [3]	logP [4]	MIC [5]
COc1c(N2CCCC(N(C)CCN3C(=O)C(=O)c4ccccc43)C2)c(F)cc2c(=O)c(C(=O)O)cn(C3CC3)c12 (centres undefined)	25 µg/mL (≈ 44.4 µM)	25 µg/mL (≈ 44.4 µM)	137 µM			
COc1c(N2CCCC(N(C)CCN3C(=O)C(=O)c4cc(F)ccc43)C2)c(F)cc2c(=O)c(C(=O)O)cn(C3CC3)c12 (centres undefined)	25 µg/mL (≈ 43.1 µM)	12.5 µg/mL (≈ 21.5 µM)	96.2 µM	64 µg/mL (≈ 110 µM)		
COc1c(N2CCCC(N(C)CCN3C(=O)/C(=N/O)c4cc(F)ccc43)C2)c(F)cc2c(=O)c(C(=O)O)cn(C3CC3)c12 (centres undefined)	6.25 µg/mL (≈ 10.5 µM)	12.5 µg/mL (≈ 21 µM)	306 µM			
CO/N=C1/C(=O)N(CCN(C)C2CCCN(c3c(F)cc4c(=O)c(C(=O)O)cn(C5CC5)c4c3OC)C2)c2ccccc21 (centres undefined)	3.12 µg/mL (≈ 5.27 µM)	6.25 µg/mL (≈ 10.6 µM)	15 µM			
CO/N=C1/C(=O)N(CCN(C)C2CCCN(c3c(F)cc4c(=O)c(C(=O)O)cn(C5CC5)c4c3OC)C2)c2ccc(F)cc21 (centres undefined)	3.12 µg/mL (≈ 5.12 µM)	6.25 µg/mL (≈ 10.3 µM)	12.8 µM			
CCO/N=C1/C(=O)N(CCN(C)C2CCCN(c3c(F)cc4c(=O)c(C(=O)O)cn(C5CC5)c4c3OC)C2)c2ccccc21 (centres undefined)	3.12 µg/mL (≈ 5.15 µM)	6.25 µg/mL (≈ 10.3 µM)	60.5 µM		0.96	
CCO/N=C1/C(=O)N(CCN(C)C2CCCN(c3c(F)cc4c(=O)c(C(=O)O)cn(C5CC5)c4c3OC)C2)c2ccc(F)cc21 (centres undefined)	3.12 µg/mL (≈ 5 µM)	6.25 µg/mL (≈ 10 µM)	53.1 µM		1.29	
COc1c(N2CCCC(N(C)CCN3C(=O)/C(=N\NC(N)=S)c4ccccc43)C2)c(F)cc2c(=O)c(C(=O)O)cn(C3CC3)c12 (centres undefined)	3.12 µg/mL (≈ 4.91 µM)	6.25 µg/mL (≈ 9.83 µM)	294 µM		1.4	
COc1c(N2CCCC(N(C)CCN3C(=O)/C(=N\NC(N)=S)c4cc(F)ccc43)C2)c(F)cc2c(=O)c(C(=O)O)cn(C3CC3)c12 (centres undefined)	3.12 µg/mL (≈ 4.77 µM)	6.25 µg/mL (≈ 9.56 µM)	313 µM		1.8	
COc1c(N2CCCC(N(C)CCN3C(=O)/C(=N\NC(N)=O)c4ccccc43)C2)c(F)cc2c(=O)c(C(=O)O)cn(C3CC3)c12 (centres undefined)	12.5 µg/mL (≈ 20.2 µM)	12.5 µg/mL (≈ 20.2 µM)	56.1 µM			
COc1c(N2CCCC(N(C)CCN3C(=O)/C(=N\NC(N)=O)c4cc(F)ccc43)C2)c(F)cc2c(=O)c(C(=O)O)cn(C3CC3)c12 (centres undefined)	6.25 µg/mL (≈ 9.8 µM)	6.25 µg/mL (≈ 9.8 µM)	57 µM			
COc1c(N2CCCC(N(C)CCN3C(=O)/C(=N\Nc4ccccc4)c4ccccc43)C2)c(F)cc2c(=O)c(C(=O)O)cn(C3CC3)c12 (centres undefined)	3.12 µg/mL (≈ 4.78 µM)	6.25 µg/mL (≈ 9.58 µM)	< 6.1 µM			
COc1c(N2CCCC(N(C)CCN3C(=O)/C(=N\Nc4ccccc4)c4cc(F)ccc43)C2)c(F)cc2c(=O)c(C(=O)O)cn(C3CC3)c12 (centres undefined)	3.12 µg/mL (≈ 4.65 µM)	6.25 µg/mL (≈ 9.32 µM)	< 6 µM			
CNC1CCCN(c2c(F)cc3c(=O)c(C(=O)O)cn(C4CC4)c3c2OC)C1 (centres undefined) [BALOFLOXACIN]	0.78 µg/mL (≈ 2 µM)	0.39 µg/mL (≈ 1 µM)	317 µM	16 µg/mL (≈ 41.1 µM)	-1.11	8 µg/mL (≈ 20.5 µM)
COc1c(N2C[C@@H]3CCCN[C@@H]3C2)c(F)cc2c(=O)c(C(=O)O)cn(C3CC3)c12 [MOXIFLOXACIN]	0.2 µg/mL (≈ 0.498 µM)	0.1 µg/mL (≈ 0.249 µM)		< 0.5 µg/mL		0.25 µg/mL (≈ 0.623 µM)

— ChEMBL document CHEMBL1208676, “Synthesis and in vitro antimycobacterial activity of balofloxacin ethylene isatin derivatives” (Eur J Med Chem, 2010)
